According to patent publication US20070134178A1, “Skin lightening complex” (priority 2005, published 2007):

How the values were obtained:
[1] = 25° C; cited from earlier work
[2] = about 20% HQ in the complex, solvent mixture of two solvents of different polarity index
Excerpt: Although the melanin-inhibiting effectiveness of HQ is desirable, water-based formulations containing high concentration HQ are difficult to prepare due to limitations in its solubility.

Oc1ccc(O)cc1 [HQ, 1,4-benzenediol]
HQ solubility in aqueous media [1]: up to 7.3 g/L | times more HQ dissolved in the solvent mixture than in aqueous media [2]: about 38.5 times
